Data reported in ChEMBL document CHEMBL1212831, “Discovery of N-[(2S)-5-(6-fluoro-3-pyridinyl)-2,3-dihydro-1H-inden-2-yl]-2-propanesulfonamide, a novel clinical AMPA receptor positive modulator” (J Med Chem, 2010).
≈ marks a conversion by molar mass, not a printed value. Calls of active or inactive are those of the source. No cut-off for these calls is given here.

What was measured:
Blood = assay: Drug level in po dosed Lister Hooded rat blood; assay type: ADME, organism-based; settings: in vivo
[1] = Plasma protein binding in monkey at 1 ug/ml after 6 hrs by equilibrium dialysis method; assay type: ADME, cell-free, Macaca mulatta; settings: rhesus monkey, read-out: PPB (converted)
[2] = Half life in cynomolgus monkey at 0.5 mg/kg, po; assay type: ADME, organism-based, Macaca fascicularis; design: dose 0.5 mg/kg, route oral; settings: in vivo
[3] = Tmax in Sprague-Dawley rat at 3 mg/kg, po; assay type: ADME, organism-based; design: dose 3 mg/kg, route oral; settings: in vivo
[4] = Half life in cynomolgus monkey at 0.125 mg/kg, iv; assay type: ADME, organism-based, Macaca fascicularis; design: dose 0.125 mg/kg, route intravenous; settings: in vivo
[5] = target: T1, Nuclear receptor subfamily 1 group I member 2 (Rattus norvegicus, UniProt Q9R1A7); assay: Activation of rat PXR
T1 sequence (Q9R1A7 whole entry): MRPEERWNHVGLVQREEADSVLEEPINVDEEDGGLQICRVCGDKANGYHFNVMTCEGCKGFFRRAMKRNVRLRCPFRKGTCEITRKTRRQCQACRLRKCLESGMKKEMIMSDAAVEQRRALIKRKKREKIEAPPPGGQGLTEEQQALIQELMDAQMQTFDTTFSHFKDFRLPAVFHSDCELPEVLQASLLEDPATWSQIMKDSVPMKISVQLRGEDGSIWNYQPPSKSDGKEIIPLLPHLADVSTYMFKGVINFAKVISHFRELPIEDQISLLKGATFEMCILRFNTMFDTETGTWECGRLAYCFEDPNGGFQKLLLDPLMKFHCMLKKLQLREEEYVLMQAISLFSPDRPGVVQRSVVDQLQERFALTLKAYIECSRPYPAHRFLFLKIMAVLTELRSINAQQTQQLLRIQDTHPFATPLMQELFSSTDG

Canis familiaris = assay: Liver blood flow in Beagle dog at 0.125 mg/kg, iv and 0.5 mg/kg, po; assay type: ADME, organism-based, Canis lupus familiaris; settings: in vivo
Rattus norvegicus = assay: Antiamnesic activity in po dosed assessed as inhibition of amnesic deficit by step-down passive avoidance test; assay type: functional, organism-based; settings: Wistar
[6] = Half life in Sprague-Dawley rat at 1 mg/kg, iv and 3 mg/kg, po; assay type: ADME, organism-based; settings: in vivo
[7] = Half life in Sprague-Dawley rat at 3 mg/kg, po; assay type: ADME, organism-based; design: dose 3 mg/kg, route oral; settings: in vivo
Cytochrome P450 2D6 = Cytochrome P450 2D6 (Homo sapiens, UniProt P10635)
Chain of Cytochrome P450 2D6 (P10635 whole entry): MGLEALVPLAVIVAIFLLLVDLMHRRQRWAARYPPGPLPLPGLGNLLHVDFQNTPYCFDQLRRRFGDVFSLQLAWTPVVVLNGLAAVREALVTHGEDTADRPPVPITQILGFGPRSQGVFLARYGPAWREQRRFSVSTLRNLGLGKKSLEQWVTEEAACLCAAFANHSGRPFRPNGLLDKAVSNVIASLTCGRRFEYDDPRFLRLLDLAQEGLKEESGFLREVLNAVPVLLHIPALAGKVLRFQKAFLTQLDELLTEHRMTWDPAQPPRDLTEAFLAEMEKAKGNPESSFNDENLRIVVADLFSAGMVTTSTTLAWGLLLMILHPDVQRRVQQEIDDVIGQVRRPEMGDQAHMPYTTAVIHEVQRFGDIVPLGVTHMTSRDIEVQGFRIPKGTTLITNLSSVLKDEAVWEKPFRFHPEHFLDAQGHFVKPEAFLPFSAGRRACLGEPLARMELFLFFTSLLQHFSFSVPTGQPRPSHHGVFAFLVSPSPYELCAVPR
Description: Inhibition of human CYP2D6 after 10 mins

[8] = Volume of distribution at steady state in cynomolgus monkey at 0.125 mg/kg, iv and 0.5 mg/kg, po; assay type: ADME, organism-based, Macaca fascicularis; settings: in vivo, read-out: Vdss
[9] = Half life in Sprague-Dawley rat at 1 mg/kg, iv; assay type: ADME, organism-based; design: dose 1 mg/kg, route intravenous; settings: in vivo
[10] = Equilibrium solubility of the compound in fasted simulated intestinal fluid at pH 2 to 10; assay type: physicochemical
[11] = Chemical stability of the compound; assay type: physicochemical
Brain = assay: Drug level in po dosed Lister Hooded rat brain assessed per gram of tissue; assay type: ADME, organism-based; settings: in vivo
[12] = Tmax in cynomolgus monkey at 0.5 mg/kg, po; assay type: ADME, organism-based, Macaca fascicularis; design: dose 0.5 mg/kg, route oral; settings: in vivo

Structure (SMILES): CC(C)S(=O)(=O)N[C@H]1Cc2ccc(-c3ccc(F)nc3)cc2C1 [GSK-729327]
- Drug uptake (Blood): 81 ng/mL
- fraction unbound at 6 h, 1 ug/ml [1]: 0.152
- half-life [2]: 24 h
- Tmax [3]: 3 h
- half-life [4]: 15 h
- Activity [5]: Not Active
- LBF (Canis familiaris): 11%
- inhibition (Rattus norvegicus): inactive
- half-life [6]: 5 h
- half-life [7]: 6.6 h
- IC50 (Cytochrome P450 2D6): > 10 µM
- Vd [8]: 1.8 L/kg
- half-life [9]: 5 h
- solubility thermodynamic [10]: 100 µg/mL (≈ 299 µM)
- Stability [11]: Stable
- Drug uptake (Brain): 122 ng/g
- Tmax [12]: 6 h
